Data taken from patent US8759500B2, “Crystalline forms of a macrolide, and uses therefor” (Cempra Pharmaceuticals, Inc., priority 2010, dated 2014).
≈ marks a conversion by molar mass, not a printed value.

Tests used:
[1] = Mean intrinsic dissolution studies; format: physicochemical
Text: Mean intrinsic dissolution rates for exemplary batches of the two forms are shown in Table cC-2 for 3 batches of Form I (SD and % CV for one batch shown) and for Form II.

Dynamic vapor sorption = format: physicochemical
Experimental: The new physical form, Form I of CEM-101 is a crystalline form which may be described by its X-ray powder diffraction pattern. Peaks at approximate positions of about °2θ=8.8, 10.5, 13.2 and 18.6 are representative of this crystalline form. A more detailed analysis of the peaks is described in Tables 1-2 below. […] Water determination by Karl Fisher titration in typical lots is 0.6 to 1.1%. […] Form I of CEM-101 melts at about 200° C. by DSC analysis.
The new physical form, Form II of CEM-101 is a crystalline form which may be described by its X-ray powder diffraction pattern. Peaks at approximate positions of about °2θ=5.6, 7.9, 9.3, 11.7, 12.9 and 16.7 are representative of this crystalline form. A more detailed analysis of the peaks is described in Tables 3-4 below. Based on a single crystal X-ray determination and dynamic vapor sorption analysis, Form II appears to be a non-hygroscopic anhydrous crystalline form that melts at about 225° C. as a single endothermic event by DSC analysis. It is appreciated herein that non-hygroscopic solids, such as Form II described herein, may be advantageous in the preparation of pharmaceutical compositions. Such advantages include improved handling and stability properties in manufacturing, improved lot to lot quality control.

[2] = Stability of Form I and Form II under various storage conditions; format: physicochemical
Text: In each case, the test material was first placed in Primary Packaging Material (LLDPE bag within a HMHDPE/LDPE/LDPE blend bag, and then heat sealed). The Primary Packaging Material was placed in Secondary Packaging Material (HDPE drum). All other impurities were less than 1% at each time point.

[3] = Aqueous solubility in water at indicated pH; conditions: water at adjusted pH, 26 °C, thermodynamic from solid
[4] = Oral pharmacokinetics in Balb/c mice, single dose 20 or 100 mg/kg; conditions: for AUCextrap: mean plasma; for AUC(0-inf) / AUC(0-t) / Cmax / Tmax / concentration at 0 h / concentration at 0.25 h / concentration at 0.5 h / concentration at 1 h / concentration at 2 h / concentration at 4 h / concentration at 6 h: Balb/c, mouse, plasma, po
Experimental: The doses were prepared as 2.0 mg/mL or 10.0 mg/mL in a vehicle of 0.5% (w/v) carboxymethyl cellulose in water and a dose volume of 10 mL/kg b.w. Blood samples were collected at various time points during the next 6 h post dose.

For `CC[C@H]1OC(=O)[C@@](C)(F)C(=O)[C@H](C)[C@@H](O[C@@H]2O[C@H](C)C[C@H](N(C)C)[C@H]2O)[C@](C)(OC)C[C@@H](C)C(=O)[C@H](C)[C@H]2N(CCCCn3cc(-c4cccc(N)c4)nn3)C(=O)O[C@]12C` [Form II, solithromycin], the “Mean intrinsic dissolution rate” value ([1]; 0.1N Hydrochloric Acid) was 8.8 mg/min/cm^2, the “Mean intrinsic dissolution rate” value ([1]; Acetate buffer, pH 4.5) was 2.7 mg/min/cm^2 and the “Mean intrinsic dissolution rate” value ([1]; Phosphate buffer, pH 6.8) was 0.01 mg/min/cm^2. The hygroscopicity (Dynamic vapor sorption) was “non-hygroscopic”, the Assay (on hydrous basis) ([2]; 2-8° C., 3 Month) was 93.4% and the “Chromatographic Purity” value ([2]; 2-8° C., 3 Month) was 96.0. The Water ([2]; 2-8° C., 3 Month) was 1.24%, the Assay (on hydrous basis) ([2]; 2-8° C., 6 Month) was 93.6% and the “Chromatographic Purity” value ([2]; 2-8° C., 6 Month) was 96.8. For the same compound, the Water ([2]; 2-8° C., 6 Month) was 1.39%, the 3-Ethynylaniline ([2]; 2-8° C., 9 Month) was 0.01% and the Assay (on hydrous basis) ([2]; 2-8° C., 9 Month) was 93.3%. For the same compound, the “Chromatographic Purity” value ([2]; 2-8° C., 9 Month) was 96.4, the Water ([2]; 2-8° C., 9 Month) was 1.38% and the 3-Ethynylaniline ([2]; 2-8° C., 12 Month) was 0.12%. The Assay (on hydrous basis) ([2]; 2-8° C., 12 Month) was 93%, the “Chromatographic Purity” value ([2]; 2-8° C., 12 Month) was 96.8 and the Water ([2]; 2-8° C., 12 Month) was 1.37%. For the same compound, the Assay (on hydrous basis) ([2]; 2-8° C., Initial) was 93.9%, the “Chromatographic Purity” value ([2]; 2-8° C., Initial) was 97.0 and the Water ([2]; 2-8° C., Initial) was 1.01%. The “Assay (on hydrous basis)” value ([2]; 25° C./60% RH, 3 Month) was 93.6%, the “Chromatographic Purity” value ([2]; 25° C./60% RH, 3 Month) was 96.0% and the Water ([2]; 25° C./60% RH, 3 Month) was 1.16%. For the same compound, the “Assay (on hydrous basis)” value ([2]; 25° C./60% RH, 6 Month) was 93.7%, the “Chromatographic Purity” value ([2]; 25° C./60% RH, 6 Month) was 96.7% and the Water ([2]; 25° C./60% RH, 6 Month) was 1.42%. For the same compound, the 3-Ethynylaniline ([2]; 25° C./60% RH, 9 Month) was 0.04%, the “Assay (on hydrous basis)” value ([2]; 25° C./60% RH, 9 Month) was 93.2% and the “Chromatographic Purity” value ([2]; 25° C./60% RH, 9 Month) was 96.2%. The Water ([2]; 25° C./60% RH, 9 Month) was 1.45%, the 3-Ethynylaniline ([2]; 25° C./60% RH, 12 Month) was 0.11% and the “Assay (on hydrous basis)” value ([2]; 25° C./60% RH, 12 Month) was 93.0%. For the same compound, the “Chromatographic Purity” value ([2]; 25° C./60% RH, 12 Month) was 96.1%, the Water ([2]; 25° C./60% RH, 12 Month) was 1.48% and the “Assay (on hydrous basis)” value ([2]; 25° C./60% RH, Initial) was 93.9%. The “Chromatographic Purity” value ([2]; 25° C./60% RH, Initial) was 97.0%, the Water ([2]; 25° C./60% RH, Initial) was 1.01% and the “Assay (on hydrous basis)” value ([2]; 40° C./75% RH, 3 Month) was 93.0%. For the same compound, the “Chromatographic Purity” value ([2]; 40° C./75% RH, 3 Month) was 95.9%, the Water ([2]; 40° C./75% RH, 3 Month) was 1.24% and the “Assay (on hydrous basis)” value ([2]; 40° C./75% RH, 6 Month) was 93.1%. For the same compound, the “Chromatographic Purity” value ([2]; 40° C./75% RH, 6 Month) was 96.5%, the Water ([2]; 40° C./75% RH, 6 Month) was 1.62% and the 3-Ethynylaniline ([2]; 40° C./75% RH, 9 Month) was 0.02%. For the same compound, the “Assay (on hydrous basis)” value ([2]; 40° C./75% RH, 9 Month) was 92.5%, the “Chromatographic Purity” value ([2]; 40° C./75% RH, 9 Month) was 96.2% and the Water ([2]; 40° C./75% RH, 9 Month) was 1.51%. For the same compound, the 3-Ethynylaniline ([2]; 40° C./75% RH, 12 Month) was 0.05%, the “Assay (on hydrous basis)” value ([2]; 40° C./75% RH, 12 Month) was 92.3% and the “Chromatographic Purity” value ([2]; 40° C./75% RH, 12 Month) was 97.1%. For the same compound, the Water ([2]; 40° C./75% RH, 12 Month) was 1.56%, the “Assay (on hydrous basis)” value ([2]; 40° C./75% RH, Initial) was 93.9% and the “Chromatographic Purity” value ([2]; 40° C./75% RH, Initial) was 97.0%. The Water ([2]; 40° C./75% RH, Initial) was 1.01%, the “change in color of the test material” value ([2]; during the entire study, all storage conditions) was “no observed change in color” and the solubility at 6 h ([3]; pH 1.2, simulated gastric fluid) was 3640 µg/mL (≈ 4310 µM). It also gave a solubility at 6 h ([3]; pH 4, aqueous buffer) of 361 µg/mL (≈ 427 µM), a solubility at 6 h ([3]; pH 7.4, aqueous buffer) of 305 µg/mL (≈ 361 µM) and a solubility at 6 h ([3]; pH 9.2, aqueous buffer) of 331 µg/mL (≈ 392 µM). It also gave an AUCextrap ([4]; Female Balb/c mouse, 20 mg/kg oral, listed as CEM-101 Form II, 20 mg/kg) of 12%, an AUCextrap ([4]; Male Balb/c mouse, 20 mg/kg oral, listed as CEM-101 Form II, 20 mg/kg) of 42% and an AUCextrap ([4]; Male Balb/c mouse, 100 mg/kg oral) of 33%. For the same compound, the AUC(0-inf) ([4]; female, 20 mg/kg) was 36000 ng·h/mL, the AUC(0-t) ([4]; female, 20 mg/kg) was 31600 ng·h/mL and the Cmax ([4]; female, 20 mg/kg) was 8800 ng/mL. The Tmax ([4]; female, 20 mg/kg) was 0.5 h, the concentration at 0 h ([4]; female, 20 mg/kg) was 0 ng/mL and the concentration at 0.25 h ([4]; female, 20 mg/kg) was 6200 ± 1600 ng/mL. It also gave a concentration at 0.5 h ([4]; female, 20 mg/kg) of 8800 ± 800 ng/mL, a concentration at 1 h ([4]; female, 20 mg/kg) of 7300 ± 900 ng/mL and a concentration at 2 h ([4]; female, 20 mg/kg) of 6100 ± 1000 ng/mL. The concentration at 4 h ([4]; female, 20 mg/kg) was 5500 ± 1700 ng/mL, the concentration at 6 h ([4]; female, 20 mg/kg) was 1300 ± 500 ng/mL and the AUC(0-t) ([4]; female, 100 mg/kg) was 55000 ng·h/mL. For the same compound, the Cmax ([4]; female, 100 mg/kg) was 10500 ng/mL, the Tmax ([4]; female, 100 mg/kg) was 4 h and the concentration at 0 h ([4]; female, 100 mg/kg) was 0 ng/mL. For the same compound, the concentration at 0.25 h ([4]; female, 100 mg/kg) was 7300 ± 900 ng/mL, the concentration at 0.5 h ([4]; female, 100 mg/kg) was 10500 ± 1400 ng/mL and the concentration at 1 h ([4]; female, 100 mg/kg) was 9600 ± 2200 ng/mL. For the same compound, the concentration at 2 h ([4]; female, 100 mg/kg) was 9500 ± 2200 ng/mL, the concentration at 4 h ([4]; female, 100 mg/kg) was 10200 ± 1000 ng/mL and the concentration at 6 h ([4]; female, 100 mg/kg) was 7800 ± 1100 ng/mL. The AUC(0-inf) ([4]; male, 20 mg/kg) was 49000 ng·h/mL, the AUC(0-t) ([4]; male, 20 mg/kg) was 29000 ng·h/mL and the Cmax ([4]; male, 20 mg/kg) was 6730 ng/mL. The Tmax ([4]; male, 20 mg/kg) was 0.5 h, the concentration at 0 h ([4]; male, 20 mg/kg) was 0 ng/mL and the concentration at 0.25 h ([4]; male, 20 mg/kg) was 4100 ± 800 ng/mL. It also gave a concentration at 0.5 h ([4]; male, 20 mg/kg) of 6700 ± 600 ng/mL, a concentration at 1 h ([4]; male, 20 mg/kg) of 5900 ± 800 ng/mL and a concentration at 2 h ([4]; male, 20 mg/kg) of 5600 ± 400 ng/mL. The concentration at 4 h ([4]; male, 20 mg/kg) was 4900 ± 1100 ng/mL, the concentration at 6 h ([4]; male, 20 mg/kg) was 2900 ± 600 ng/mL and the AUC(0-inf) ([4]; male, 100 mg/kg) was 99000 ng·h/mL. It also gave an AUC(0-t) ([4]; male, 100 mg/kg) of 66000 ng·h/mL, a Cmax ([4]; male, 100 mg/kg) of 10600 ng/mL and a Tmax ([4]; male, 100 mg/kg) of 4 h. The concentration at 0 h ([4]; male, 100 mg/kg) was 0 ng/mL, the concentration at 0.25 h ([4]; male, 100 mg/kg) was 6800 ± 700 ng/mL and the concentration at 0.5 h ([4]; male, 100 mg/kg) was 6900 ± 1100 ng/mL. The concentration at 1 h ([4]; male, 100 mg/kg) was 8700 ± 2700 ng/mL, the concentration at 2 h ([4]; male, 100 mg/kg) was 9300 ± 1200 ng/mL and the concentration at 4 h ([4]; male, 100 mg/kg) was 10600 ± 1400 ng/mL. The concentration at 6 h ([4]; male, 100 mg/kg) was 7200 ± 800 ng/mL.
